{
  "source": "patent US9593148B2",
  "about": "“DPP8 and DPP9 peptide inhibitors” (GEORG-AUGUST-UNIVERSITAT GOTTINGEN STIFTUNG OFFENTLICHEN …, priority 2012, dated 2017)",
  "key": {"HeLa cells [1]": {"test_system": "HeLa cells", "test": "Cytosolic prolyl peptidase activity of HeLa cells treated with peptide alone or with Pep-1", "assay_type": "cell-based, human", "conditions": "5 μM peptide, 30 min, also in the absence of carrier peptide Pep-1", "experimental": "In another experiment, HeLa cells were treated for 30 minutes with either 5 μM […] (SEQ ID NO: 38) alone or in complex with the carier peptide Pep-1. Cells were then typsinized and cytosolic extracts were prepared and tested for cleavage of the model substrate GP-AMC. Upper panel: […] (SEQ ID NO: 38) was allowed to form a complex with carrier peptide Pep-1 at a molar ratio of 1:10 (cargo:carrier) in FCS free DMEM for 30 min at 37° C. Lower panel: As a comparison, the inhibitory peptide […] was used also in the absence of carrier peptide, at the same concentration. For control, the solvent DMSO was used. These mixtures were overlaid onto HeLa cells allowing the entry for 30 minutes at 37° C. Cells were then trypsinized and lysed in TB buffer containing 0.2% Tween. After ultracentrifugation, the cytosolic extract were probed for DPP activity using […] of the fluorogenic substrate GP-AMC. Each experiment was performed in triplicates."}, "DPP8": {"target": "T1, DPP8 (Homo sapiens, UniProt Q6V1X1)", "T1 construct": "made in house; host or cells: Sf9 insect cells (baculovirus)", "test": "Kinetics assay, Ki for inhibition of DPP8 (GP-AMC hydrolysis)", "assay_type": "biochemical", "experimental": "(§1) Enzyme kinetics and the Ki of DPP8 or DPP9 may be determined as follows: 25 nM purified recombinant enzyme (DPP9 or DPP8) are incubated with varying concentrations of GP-AMC ([…] GP-AMC), in TB buffer (20 mM Hepes/KOH pH 7.3, 110 mM potassium acetate, 2 mM Mg acetate, 0.5 mM EGTA), supplemented with 0.2% Tween-20, 1 mM dithiothreitol. Experiments are performed in triplicates. To measure Ki values, for each set of experiments, inhibitory peptides are added to DPP9 or DPP8. Peptide concentrations tested are in the range between 0.04 to 50 μM. Release of AMC from GP-AMC is measured using the Appliskan microplate fluorimeter (Thermo Scientific) with 380 nm (excitation) and 480 nm (emission) filters and the Skanit software, and analysed using the Prism software.\n(§2) A&B 25 nM purified recombinant (A) DPP9 or (B) DPP8 were incubated with varying concentrations of the EIL peptide (0, 3.3 μM and 6.6 μM) and tested for hydrolysis of GP-AMC (1000, 500, 250, 125, 0 μM). C. 25 nM DPPIV was tested for the hydrolysis of GP-AMC (500, 250, 125, 0 μM) in the presence of 0 or 13 μM EIL peptide. Fluorescence was measured using the Appliskan microplate fluorimeter (Thermo Scientific) with 380 nm (excitation) and 480 nm (emission) filters and the Skanit software, and analysed using the Prism software. Each experiment was performed at least three times, in replicates of four."}, "DPP9 [2]": {"target": "T2, DPP9 (Homo sapiens, UniProt Q86TI2)", "T2 construct": "made in house; host or cells: Sf9 insect cells (baculovirus)", "T2 sequence (Q86TI2 1-892 isoform Q86TI2-2)": "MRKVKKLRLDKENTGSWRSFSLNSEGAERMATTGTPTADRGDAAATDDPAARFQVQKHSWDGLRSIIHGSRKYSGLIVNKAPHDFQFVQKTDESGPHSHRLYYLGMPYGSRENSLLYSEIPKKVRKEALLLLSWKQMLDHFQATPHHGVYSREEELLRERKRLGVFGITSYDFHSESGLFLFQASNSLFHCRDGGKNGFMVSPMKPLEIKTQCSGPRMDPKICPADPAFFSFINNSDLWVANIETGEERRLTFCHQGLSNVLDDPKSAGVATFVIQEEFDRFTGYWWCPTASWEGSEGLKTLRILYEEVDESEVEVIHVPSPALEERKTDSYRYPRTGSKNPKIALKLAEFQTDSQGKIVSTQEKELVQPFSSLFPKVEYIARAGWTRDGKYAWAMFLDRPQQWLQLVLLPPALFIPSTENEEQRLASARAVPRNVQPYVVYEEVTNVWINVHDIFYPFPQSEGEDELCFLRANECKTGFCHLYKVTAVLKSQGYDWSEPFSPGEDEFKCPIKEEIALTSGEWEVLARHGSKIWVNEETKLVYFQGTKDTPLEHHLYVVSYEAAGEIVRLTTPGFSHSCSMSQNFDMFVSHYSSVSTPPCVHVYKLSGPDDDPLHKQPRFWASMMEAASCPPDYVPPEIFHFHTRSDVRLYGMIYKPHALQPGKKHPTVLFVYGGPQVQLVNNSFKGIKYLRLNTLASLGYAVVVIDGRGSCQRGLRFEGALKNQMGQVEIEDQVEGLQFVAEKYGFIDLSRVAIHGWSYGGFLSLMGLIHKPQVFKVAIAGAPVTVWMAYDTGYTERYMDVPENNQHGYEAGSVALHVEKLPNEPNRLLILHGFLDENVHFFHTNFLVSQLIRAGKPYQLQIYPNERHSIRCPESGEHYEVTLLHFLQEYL", "test": "Inhibition of GP-AMC hydrolysis by purified recombinant DPP9 at a single peptide concentration", "assay_type": "biochemical", "conditions": "25 nM DPP9, 0.2 mM GP-AMC, 10 μM peptide; DPP9 alone = 100.3", "experimental": "Accordingly, the peptide is capable of inhibiting the activity of wild-type DPP9 (SEQ ID NO: 6) to a level of 35 to 5% of the activity of wild-type DPP9 (SEQ ID NO: 6) if not inhibited, as determined in an assay using 25 nM purified DPP9, 0.2 mM GP-AMC, and 14 μM of the peptide to be tested, in TB buffer (20 mM Hepes/KOH pH 7.3, 110 mM potassium acetate, 2 mM Mg acetate, 0.5 mM EGTA), supplemented with 0.2% Tween-20, 1 mM dithiothreitol. Release of AMC from GP-AMC is measured using the Appliskan microplate fluorimeter (Thermo Scientific) with 380 nm (excitation) and 480 nm (emission) filters and the Skanit software, and analysed using the Prism software.\n(§3) Kinetics assays: Purified recombinant DPP9 (25 nM) was incubated with varying concentrations of GP-AMC, in TB supplemented with 0.2% Tween-20, 1 mM ditiothreitol. For inhibition assays, inhibitory peptides were added directly to the reaction mixture. For activation by SUMO 0.2 mg/ml BSA, was added to the buffer to prevent non specific binding. DPP9 were incubated with 2.5 μM of either SUMO1, SUMO1 E67A, SUMO2 for 2 hour on ice prior to the assay. Alternatively DPP9 was incubated with 1 μM of RanGAP or RanGAP modified with either SUMO1 or SUMO2 for 2 hours prior to the assay. Fluorescence was measured using the Appliskan microplate fluorimeter (Thermo Scientific) with 380 nm (excitation) and 480 nm (emission) filters and the Skanit software, and analysed using the Prism software. Each experiment was performed at least three times, in replicates of four.\nTo improve the inhibition of DPP9, the inventors tested several peptide libraries composed of truncated variants of the EIL peptide (>80% pure, ordered from Genescript). These peptides were incubated with recombinant DPP9 and analysed GP-AMC hydrolysis. AMC release was then compared to samples containing either DPP9 alone, or the EIL peptide."}, "HeLa cells [3]": {"test_system": "HeLa cells", "test": "MTT proliferation assay of HeLa cells expressing the peptide", "assay_type": "cell-based, human", "conditions": "Ubiquitin-SLRFLYEG-YFP construct, 32 hours after transfection, vs control plasmid or mock", "experimental": "To test whether DPP8/9 inhibition effects cell viability, the inventors performed MTT (3-4,5-dimethylthiazol-2-yl)-2,5-diphenyltetrazolium bromide) based assays, which are widely used to measure cell proliferation and growth (e.g. in clinical settings for testing tumor sensitivity to chemotherapeutic agents). This assay involves the conversion of the water soluble MTT to an insoluble formazan. The formazan is then solubilized in 0.1N HCl. Absorbance is then determined at 570 nm. For a prolonged exposure of cells to the allosteric DPP8/9 inhibitor […] (SEQ ID NO: 38), the inventors cloned the peptide into a mammalian expression vector pEYFP-N1 from Clontech. The peptide inhibitor contains a serine at its amino-termini. Thus, to avoid expression of the peptide with a methionine residue at its amino terminus, it was cloned in frame with ubiquitin. Once expressed in cells, the ubiquitin moiety is cleaved by ubiquitin isopeptidases to release the […]-YFP (SEQ ID NO: 38) construct. A control construct was included that lacked the […] (SEQ ID NO: 38) peptide (Ubiquitin-YFP). […] 32 hours after transfection, cells were analyzed via a standard MTT assay.\nBriefly, cell media was removed and replaced by 0.5 mg/ml of MTT reagent. […] Absorbance was measured with a microplate fluorimeter. […]"}, "DPP9 [4]": {"target": "T2, DPP9", "test": "Kinetics assay, Ki for inhibition of DPP9 (GP-AMC hydrolysis)", "assay_type": "biochemical", "experimental": "as §1, §2, §3"}, "DPPIV": {"target": "DPPIV (Homo sapiens, UniProt P27487)", "sequence (P27487 whole entry)": "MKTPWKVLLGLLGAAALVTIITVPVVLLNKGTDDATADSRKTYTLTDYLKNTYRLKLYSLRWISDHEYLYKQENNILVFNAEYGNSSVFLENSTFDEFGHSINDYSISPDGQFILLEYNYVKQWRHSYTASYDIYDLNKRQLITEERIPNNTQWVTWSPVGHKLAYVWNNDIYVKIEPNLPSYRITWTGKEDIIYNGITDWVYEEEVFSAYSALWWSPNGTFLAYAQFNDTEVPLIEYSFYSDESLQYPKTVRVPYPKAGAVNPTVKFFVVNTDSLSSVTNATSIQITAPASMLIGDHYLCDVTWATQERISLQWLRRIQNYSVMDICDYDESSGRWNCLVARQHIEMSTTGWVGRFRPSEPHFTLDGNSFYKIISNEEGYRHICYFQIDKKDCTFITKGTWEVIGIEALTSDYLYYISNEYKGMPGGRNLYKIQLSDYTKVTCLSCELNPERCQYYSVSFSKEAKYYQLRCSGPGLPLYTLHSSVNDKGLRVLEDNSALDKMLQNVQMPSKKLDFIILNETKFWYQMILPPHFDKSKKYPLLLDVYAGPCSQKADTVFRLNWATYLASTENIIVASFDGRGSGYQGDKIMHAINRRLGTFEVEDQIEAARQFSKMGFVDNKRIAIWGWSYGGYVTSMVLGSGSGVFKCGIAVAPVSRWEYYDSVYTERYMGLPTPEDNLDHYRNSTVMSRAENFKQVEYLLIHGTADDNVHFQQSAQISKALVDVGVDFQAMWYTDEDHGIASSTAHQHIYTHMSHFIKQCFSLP", "test": "GP-AMC hydrolysis by DPPIV in the presence of peptide", "assay_type": "biochemical", "conditions": "concentrations measured up to 50 μM", "experimental": "Preferably, the peptide is capable of inhibiting the activity by wild-type DPP9 (SEQ ID NO: 6) to a level of 30 to 5%, 29 to 5%, 28 to 5%, 27 to 5%, 26 to 5%, 25 to 5%, 24 to 5%, 23 to 5%, 22 to 5%, 21 to 5%, 20 to 5%, 19 to 5%, 18 to 5%, 17 to 5%, 16 to 5%, 15 to 5%, 14 to 5%, 13 to 5%, 12 to 5%, 11 to 5%, 10 to 5%, 9 to 5%, 8 to 5%, such as 7.5 to 5% of the activity of wild-type DPP9 (SEQ ID NO: 6) if not inhibited. […] Release of AMC from GP-AMC is measured using the Appliskan microplate fluorimeter (Thermo Scientific) with 380 nm (excitation) and 480 nm (emission) filters and the Skanit software, and analysed using the Prism software.\nas §2"}, "SUMO1-DPP9 interaction": {"target": "T3, SUMO1-DPP9 interaction (Homo sapiens, UniProt P63165)", "T3 construct": "made in house; DPP9: Sf9 insect cells", "T3 sequence (P63165 2-97 limits assumed)": "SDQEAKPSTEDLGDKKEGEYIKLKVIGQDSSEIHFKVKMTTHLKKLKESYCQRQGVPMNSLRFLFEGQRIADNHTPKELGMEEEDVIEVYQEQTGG", "test": "ELISA: competition of SUMO1 binding to immobilized DPP9", "conditions": "SUMO1 pre-incubated with varying concentrations of peptide", "experimental": "A. HA-tagged DPP9 mutants (DPP9V285A, DPP9V287A, DPP9I288A and DPP9V290) were expressed in HEK293T cells and purified using anti-HA beads agarose. Purified DPP9 proteins (input) were then incubated with SUMO1-immobilized beads. Bound DPP9 was eluted and analysed by western blotting using anti HA antibodies. B. Alignment of the amino-acid sequences corresponding to the ‘arms’ of DPP9 (SEQ ID NO: 3), DPP8 (SEQ ID NO: 4) and DPPIV (SEQ ID NO: 5). C A homology model of DPP9 (published by (Park et al., 2008)), shown from the ‘back’ side and the ‘front’ (180° rotation) side, which also reveal the so-called side opening. Color code: the hydrolase domain is dark grey, the eight-bladed propeller is light grey and the extended SUMO-binding-arm is indicated. D. Results of an ELISA assay. […] The SUMO1-peptide mix was then added to immobilized DPP9, and interacting SUMO1 was quantified using SUMO1-specific antibodies.\nELISA: A 96 well plate (Immuno 96 MicroWell™ Solid Plates, Nunc) was coated with 600 ng purified recombinant proteins per well in 100 μl TB, overnight at 4° C. […] Interacting proteins were detected using specific antibodies diluted in ELISA buffer: goat anti DPP9 antibody or anti GMP antibody (SUMO1). […] Absorbance was measured at 420 nm on an Appliskan microplate fluorimeter (Thermo Scientific) and the Skanit software. […]"}, "HEK293 cells": {"test_system": "HEK293 cells", "test": "Cytosolic prolyl peptidase activity of HEK293 cells treated with peptide plus carrier Peptide 1", "assay_type": "cell-based, human", "conditions": "5 μM peptide with 100 μM Peptide 1, 30 min, 5 μg extract, 500 μM GP-AMC", "experimental": "Cells were incubated for 30 minutes with 0 μM, 5 μM or 10 μM […] (SEQ ID NO: 40) and 100 μM carrier pep-1. Cytosolic extracts of cells (5 μg) were then tested for hydrolysis of 0.5 mM GP-AMC.\nThe inventors tested whether the inhibitory peptides can be inserted into cells. For this purpose the inventors established a method using a well characterized carrier peptide: Peptide 1 ([…]; SEQ ID NO: 48), in combination with […] (SEQ ID NO: 40). To test for effective inhibition, the inventors measured for hydrolysis of an artificial DPP8 and DPP9 substrate: GP-AMC, specifically in cytosolic extracts. For this, 5 μM or 10 μM of […] (SEQ ID NO: 40) were incubated with 100 μM Peptide 1, at 37° C. for 30 minutes, in […] DMEM without FCS, supplemented with glutamine and antibiotics. Once a complex was formed between the […] (SEQ ID NO: 40) and peptide 1, it was added to HEK293 cells (human embryonic kidney cells), grown in 24 well plates (50% confluence), and incubated for 30 minutes at 37° C. Cells were then trypsinized and washed twice with PBS buffer. Cell pellet was shock frozen in liquid nitrogen. […] Fluorescence was measured using the Appliskan microplate fluorimeter (Thermo Scientific) with 380 nm (excitation) and 480 nm (emission) filters and the Skanit software, and analysed using the Prism software."}},
  "note": "No end group written: not given here.",
  "data": [
    {"substance": "H-SLRFLYEG", "values": [
      {"measurement": "cytosolic prolyl peptidase activity after exposure of cells", "setting": "HeLa cells [1]", "value": "inhibits cytosolic prolyl peptidase activity"},
      {"measurement": "Ki", "setting": "DPP8", "value": 3600, "unit": "nM"},
      {"measurement": "fold lower affinity for DPP8 compared to DPP9", "setting": "DPP8", "value": 9, "unit": "fold"},
      {"measurement": "% DPP9 activity (Mean)", "setting": "DPP9 [2]", "value": 10.92, "unit": "%"},
      {"measurement": "reduction in cell proliferation", "setting": "HeLa cells [3]", "value": "at least 50%"},
      {"measurement": "fold increased efficiency compared to the EIL peptide (Ki DPP9)", "setting": "DPP9 [4]", "value": 18.5, "unit": "fold"},
      {"measurement": "Ki", "setting": "DPP9 [4]; read-out: Ki for DPP9", "value": 400, "unit": "nM"},
      {"measurement": "inhibitory effect towards DPPIV", "setting": "DPPIV", "value": "no inhibitory effect"}
    ]},
    {"substance": "VEVIHVPSPALEERKTDSYR (listed as Homo sapiens) [DPP9-arm peptide, peptide corresponding to the extended arm of DPP9 (285-304)]", "values": [
      {"measurement": "competition with DPP9 for binding to SUMO1", "setting": "SUMO1-DPP9 interaction", "value": "competed with DPP9 for binding to SUMO1 in a concentration dependent manner"}
    ]},
    {"substance": "SLRFLYAG", "values": [
      {"measurement": "inhibition of cytosolic prolyl peptidase activity", "setting": "HEK293 cells", "value": "~30", "unit": "%"}
    ]}
  ]
}
